The record followed here is BindingDB's records for PubMed 2138666 (Department of Veterans Affairs Medical Center, 1990).

Usually Ki stands for a measure of affinity in units of concentration, obtained from inhibition or displacement. Low readings indicate higher affinity, high ones lower affinity.

Assay [1] deals with T1, Alpha-2C adrenergic receptor (Rattus norvegicus, UniProt P22086).
T1 sequence (P22086 whole entry): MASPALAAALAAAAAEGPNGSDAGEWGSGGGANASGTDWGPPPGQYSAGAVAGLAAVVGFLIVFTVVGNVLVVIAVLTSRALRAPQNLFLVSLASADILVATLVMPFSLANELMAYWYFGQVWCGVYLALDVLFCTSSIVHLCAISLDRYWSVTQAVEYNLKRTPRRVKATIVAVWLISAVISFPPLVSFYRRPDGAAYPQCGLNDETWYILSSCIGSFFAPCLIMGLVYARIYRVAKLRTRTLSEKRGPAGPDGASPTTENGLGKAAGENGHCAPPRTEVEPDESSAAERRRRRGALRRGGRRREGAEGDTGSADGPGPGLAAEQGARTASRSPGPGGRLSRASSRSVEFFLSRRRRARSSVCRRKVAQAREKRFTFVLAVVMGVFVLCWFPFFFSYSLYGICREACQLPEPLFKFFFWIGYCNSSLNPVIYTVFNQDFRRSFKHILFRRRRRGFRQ

A further assay deals with D(2) dopamine receptor (Rattus norvegicus, UniProt P61169).

SMILES strings stand for the structures. Some results are limits rather than exact numbers.

Sequence of D(2) dopamine receptor (P61169 whole entry): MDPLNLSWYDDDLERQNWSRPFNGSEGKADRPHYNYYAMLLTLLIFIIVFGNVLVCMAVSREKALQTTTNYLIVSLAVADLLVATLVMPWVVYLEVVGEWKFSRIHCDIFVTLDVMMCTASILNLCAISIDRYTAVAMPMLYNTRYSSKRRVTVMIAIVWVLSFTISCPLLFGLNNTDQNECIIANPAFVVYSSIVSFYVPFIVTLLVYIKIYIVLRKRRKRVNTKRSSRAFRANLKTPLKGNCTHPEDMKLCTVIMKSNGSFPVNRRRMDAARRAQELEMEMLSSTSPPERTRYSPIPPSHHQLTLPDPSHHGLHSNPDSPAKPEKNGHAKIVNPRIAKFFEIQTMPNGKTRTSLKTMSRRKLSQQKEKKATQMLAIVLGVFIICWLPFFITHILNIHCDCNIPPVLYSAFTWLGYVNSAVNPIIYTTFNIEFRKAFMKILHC

`CCN1CCCC1CNC(=O)c1cc(S(N)(=O)=O)ccc1OC` (stereo not given) [N-[(1-ethylpyrrolidin-2-yl)methyl]-2-methoxy-5-sulfamoylbenzamide] displayed a Ki in assay [1] of 4.3 µM.
In turn, `Clc1cccc(Cl)c1N=C1NCCN1` [2-(2,6-dichloroanilino)-2-imidazoline] yielded a Ki at D(2) dopamine receptor of more than 10 µM.
In assay [1], `CC(C)(C)[C@]1(O)CCN2C[C@H]3c4ccccc4CCc4cccc(c43)[C@@H]2C1` gave a Ki of 0.158 µM.
`Nc1cc(Cl)c(N=C2NCCN2)c(Cl)c1` [p-AMINOCLONIDINE] registered a Ki at D(2) dopamine receptor of more than 10 µM.
`c1ccc2c(c1)OCC(C1=NCCN1)O2` (stereo not given) yielded a Ki at D(2) dopamine receptor of more than 10 µM.
